Legend:
hop = test: Oxidation stress resistance against methyl viologen in hop leaves (leaf chlorosis, chlorophyll content), Example 10; format: in vivo, hop (variety: Hersbrucker); settings: 1 mM, 5 μM methyl viologen, 22° C. 4 days
Experimental: A hop strain (the variety: Hersbrucker) was used as an experimental material. Hop seedlings grown in the field of Kirin Brewery Company, Limited in Iwate, Japan were used.
A Murashige and Skoog Plant Salt Mixture 2.2 g and glucose 20 g (FUJIFILM Wako) were dissolved in 1 l of pure water, and a pH was adjusted to 5.8. Thereafter, agar (8 g (Ina Food Industry Co., Ltd.) was dissolved and autoclaved (121° C., 15 minutes).
A Murashige and Skoog Plant Salt Mixture 2.2 g and glucose 20 g were dissolved in 1 l of pure water, a pH was adjusted to 5.8, and the resultant was autoclaved (121° C., 20 minutes).
Tissue-cultured seedlings required for evaluation of oxidation stress response of a hop were prepared in a laboratory. […]
Leaf chlorosis is observed in plants upon oxidation stress exposure. Thus, an extent of chlorosis was evaluated by measuring the content of the green pigment chlorophyll in leaves.
Plants in a well (3 leaves) was transferred to a 1.5-ml tube containing 1 ml of N,N-dimethylformamide and incubated at 4° C. in the dark for 1 day to extract the chlorophyll. The absorbance of the extract was measured at 647 nm and 664 nm, respectively, to calculate the chlorophyll content on a leaf fresh weight basis. The chlorophyll content was calculated in the same manner as in Example 1.

HAC1 = HAC1 gene expression by real-time PCR, Example 15; format: in vivo; settings: Arabidopsis thaliana; 0.1 mM in medium, 2 hours after application, 22° C.; read-out: HAC1 expression level, increase vs group not subjected to the treatment
Experimental: The materials as used in Example 14 were used.
A liquid medium containing a ½ Murashige and Skoog Plant Salt Mixture (Nacalai) and 1 (w/v) % sucrose (FUJIFILM Wako) was used as a growth medium.
Arabidopsis thaliana seeds were sterilized with the use of a Kitchen Haiter® liquid (Kao Corporation) diluted to one-half concentration with distilled water for 3 minutes, washed 3 times with sterile distilled water, and then incubated at 4° C. overnight. The growth medium was dispensed at 1 ml/well on a 12-well microplate (IWAKI), 5 grains of the seeds were inoculated in each well, and the plate was transferred to the incubator (TOMY) to initiate growing. The incubator was maintained at a temperature of 22° C. for a daily cycle of 16 hours light and 8 hours darkness.
N-acetylglutamic acid was applied to Arabidopsis thaliana 7 days after inoculation to the final concentration of 0.1 mM in the medium, followed by incubation for 2 hours or 6 hours. The incubator was maintained at a temperature of 22° C. for a daily cycle of 16 hours light and 8 hours darkness. After incubation, the samples were frozen with liquid nitrogen, and RNA was extracted using the RNeasy Plant Mini Kit […]. […]
Thereafter, the relative expression levels of the target genes upon N-acetylglutamic acid treatment were calculated by the ΔΔCt method using the Cp values obtained by real-time PCR.

SMILES: CC(=O)N[C@@H](CCC(=O)O)C(=O)O [N-acetylglutamic acid]
- leaf chlorosis in MV-treated group, compared with control group (hop): more suppressed
- decrease in the chlorophyll content in the MV-treated groups, compared with the control group (hop; leaf fresh weight basis): suppressed
- fold induction at 100 µM (HAC1): 1.2

From US20260324636A1, “COMPOSITION FOR PROVIDING PLANT WITH STRESS RESISTANCE” (KIRIN HOLDINGS KABUSHIKI KAISHA, priority 2022, published 2026)
